Common to all, as to assay type: biochemical
One assay addresses PLK1 (Homo sapiens, UniProt P53350). The experiment in a line: PLK TR-FRET peptide assay, PLK1. Conditions: GST-PLK1, 60 min reaction. In general terms: Time-resolved FRET reads energy transfer from a long-lived donor to a nearby acceptor.
In a further assay the target is PLK2 (Homo sapiens, UniProt Q9NYY3). The experiment in a line: PLK TR-FRET peptide assay, PLK2. As to conditions: for IC50: PLK TR-FRET peptide assay, GST-PLK2, 60 min reaction, read-out: Plk2 IC50; for relative PLK2 activity of the enantiomers: compared with the opposite enantiomer.
PLK2, sequence (Q9NYY3 whole entry): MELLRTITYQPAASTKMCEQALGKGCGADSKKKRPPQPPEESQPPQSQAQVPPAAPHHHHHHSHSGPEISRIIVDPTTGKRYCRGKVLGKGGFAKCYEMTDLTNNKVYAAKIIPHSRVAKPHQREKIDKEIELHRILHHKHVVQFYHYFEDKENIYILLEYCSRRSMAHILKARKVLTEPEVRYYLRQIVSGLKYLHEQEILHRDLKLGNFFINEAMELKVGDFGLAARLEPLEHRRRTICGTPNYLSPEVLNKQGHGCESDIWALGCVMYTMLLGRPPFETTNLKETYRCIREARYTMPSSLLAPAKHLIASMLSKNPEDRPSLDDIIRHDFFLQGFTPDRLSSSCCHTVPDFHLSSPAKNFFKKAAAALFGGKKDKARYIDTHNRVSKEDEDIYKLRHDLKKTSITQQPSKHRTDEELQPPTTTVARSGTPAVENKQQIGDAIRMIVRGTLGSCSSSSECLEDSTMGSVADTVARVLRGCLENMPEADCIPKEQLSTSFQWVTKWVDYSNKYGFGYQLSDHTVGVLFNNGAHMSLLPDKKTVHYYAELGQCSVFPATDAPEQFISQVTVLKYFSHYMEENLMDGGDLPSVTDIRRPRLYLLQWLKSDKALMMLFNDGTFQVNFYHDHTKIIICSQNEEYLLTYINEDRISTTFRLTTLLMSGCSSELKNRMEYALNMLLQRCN
In another assay the target is PLK3 (Homo sapiens, UniProt Q9H4B4). The experiment in a line: PLK TR-FRET peptide assay, PLK3.
PLK3, sequence (Q9H4B4 whole entry): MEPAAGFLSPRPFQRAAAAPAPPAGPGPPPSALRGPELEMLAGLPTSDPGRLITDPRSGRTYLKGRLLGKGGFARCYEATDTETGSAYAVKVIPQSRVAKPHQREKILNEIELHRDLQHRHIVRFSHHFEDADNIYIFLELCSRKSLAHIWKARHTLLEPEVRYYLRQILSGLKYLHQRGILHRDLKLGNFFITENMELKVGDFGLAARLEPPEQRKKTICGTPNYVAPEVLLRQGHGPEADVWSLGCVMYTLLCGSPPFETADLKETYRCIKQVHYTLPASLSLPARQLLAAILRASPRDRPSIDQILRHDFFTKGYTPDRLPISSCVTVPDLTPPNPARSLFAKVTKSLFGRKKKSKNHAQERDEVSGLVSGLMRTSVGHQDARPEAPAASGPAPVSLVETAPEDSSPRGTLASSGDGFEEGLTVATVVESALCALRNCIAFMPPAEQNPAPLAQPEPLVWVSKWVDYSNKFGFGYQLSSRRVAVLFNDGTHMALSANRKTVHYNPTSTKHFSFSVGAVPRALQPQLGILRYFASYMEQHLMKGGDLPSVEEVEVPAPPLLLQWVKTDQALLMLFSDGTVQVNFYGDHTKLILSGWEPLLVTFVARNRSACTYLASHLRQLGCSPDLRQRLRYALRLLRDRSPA
Where [1] appears, read: read-out: Plk3 IC50, GST-PLK3, 15 min reaction.
[2] abbreviates: GST-PLK3, 15 min reaction, read-out: Plk3 IC50.

Like-named read-outs stand apart in the source and are kept apart here.

As a reminder, the IC50 is the concentration that gives 50% inhibition.

PLK1, sequence (P53350 whole entry): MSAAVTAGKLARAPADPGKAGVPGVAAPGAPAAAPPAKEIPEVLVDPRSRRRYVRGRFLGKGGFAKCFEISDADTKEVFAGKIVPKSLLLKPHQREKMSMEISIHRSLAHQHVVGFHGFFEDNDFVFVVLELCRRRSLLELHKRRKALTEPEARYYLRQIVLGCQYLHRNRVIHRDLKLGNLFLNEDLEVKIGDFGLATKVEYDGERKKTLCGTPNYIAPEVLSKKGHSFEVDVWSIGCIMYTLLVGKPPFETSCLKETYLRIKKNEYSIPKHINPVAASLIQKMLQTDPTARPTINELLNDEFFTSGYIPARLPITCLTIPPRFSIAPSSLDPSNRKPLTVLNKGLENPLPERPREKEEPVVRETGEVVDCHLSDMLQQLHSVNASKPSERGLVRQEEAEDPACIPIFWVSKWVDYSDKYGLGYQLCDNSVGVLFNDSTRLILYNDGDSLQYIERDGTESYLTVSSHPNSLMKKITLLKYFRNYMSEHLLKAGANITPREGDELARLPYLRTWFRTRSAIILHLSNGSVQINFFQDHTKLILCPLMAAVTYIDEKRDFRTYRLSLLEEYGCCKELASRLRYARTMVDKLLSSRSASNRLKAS

On to `CC[C@@H]1C(=O)N(C)c2cnc(-c3ccccn3)nc2N1C1CCCC1` [Example 8, (R)-8-cyclopentyl-7-ethyl-5-methyl-2-(pyridin-2-yl)-7,8-dihydropteridin-6(5H)-one], for which the IC50 on PLK1 and at PLK2 was 1 to 10 µM each time.

Turning to `CC[C@@H]1C(=O)N(C)c2cnc(-c3ccc[nH]3)nc2N1C1CCCC1` [Example 6, (R)-8-cyclopentyl-7-ethyl-5-methyl-2-(1H-pyrrol-2-yl)-7,8-dihydropteridin-6(5H)-one], the IC50 on PLK1 and on PLK2 was under 1 µM in each case.

For `CCC1(C)C(=O)N(C)c2cnc(-n3ccnc3-c3ccc(F)cc3)nc2N1CCC(F)(F)F` (centres unmarked) [Example 279, 7-ethyl-2-(2-(4-fluorophenyl)-1H-imidazol-1-yl)-5,7-dimethyl-8-(3,3,3-trifluoropropyl)-7,8-dihydropteridin-6(5H)-one], the IC50 on PLK3 (setting [1]) lay within 10 to 50 µM.

As to `CC[C@@]12COCCN1c1nc(-n3ccnc3-c3nccs3)ncc1N(C)C2=O` [Example 387, (S)-6a-ethyl-5-methyl-2-(2-(thiazol-2-yl)-1H-imidazol-1-yl)-6a,7,9,10-tetrahydro-[1,4]oxazino[3,4-h]pteridin-6(5H)-one], on PLK2, the “relative PLK2 activity of the enantiomers” value (“relative PLK2 activity” for short) is reported as “more active compound”.

For `CC[C@@]12COCCN1c1nc(-c3snnc3-c3ccccc3)ncc1N(C)C2=O` [Example 368, (S)-6a-ethyl-5-methyl-2-(4-phenyl-1,2,3-thiadiazol-5-yl)-6a,7,9,10-tetrahydro-[1,4]oxazino[3,4-h]pteridin-6(5H)-one], the “relative PLK2 activity” value on PLK2 is “more active compound”.

Turning to `CC[C@@H]1C(=O)N(C)c2cnc(N3CCCCC3)nc2N1C1CCCC1` [Example 2, (R)-8-cyclopentyl-7-ethyl-5-methyl-2-(piperidin-1-yl)-7,8-dihydropteridin-6(5H)-one], the IC50 against PLK1 and on PLK2 was 10 to 50 µM in each case.

`CC[C@@H]1C(=O)N(C)c2cnc(-n3ccnc3)nc2N1C1CC(F)(F)C1` [Example 303, (R)-8-(3,3-difluorocyclobutyl)-7-ethyl-2-(1H-imidazol-1-yl)-5-methyl-7,8-dihydropteridin-6(5H)-one]: the IC50 against PLK1 and on PLK3 (setting [2]) was 10 to 50 µM each time.

As to `CC[C@@H]1C(=O)N(C)c2cnc(-n3cc[n+](C)c3C)nc2N1C1CCCC1` [Example 28, (R)-1-(8-cyclopentyl-7-ethyl-5-methyl-6-oxo-5,6,7,8-tetrahydropteridin-2-yl)-2,3-dimethyl-1H-imidazol-3-ium], the concentration for half-maximal inhibition (IC50) at PLK1 and on PLK2 was over 50 µM in each case.

Consider `CC[C@@H]1C(=O)N(C)c2cnc(-n3cnc4ccccc43)nc2N1C1CCCC1` [Example 4, (R)-2-(1H-benzo[d]imidazol-1-yl)-8-cyclopentyl-7-ethyl-5-methyl-7,8-dihydropteridin-6(5H)-one], for which the IC50 at PLK1 and at PLK2 was under 1 µM in each case.

For `CCOC(=O)c1cnn(-c2ncc3c(n2)N(C2CCCC2)[C@H](CC)C(=O)N3)c1` [Example 30, (R)-ethyl 1-(8-cyclopentyl-7-ethyl-6-oxo-5,6,7,8-tetrahydropteridin-2-yl)-1H-pyrazole-4-carboxylate], the IC50 at PLK1 and at PLK2 was over 50 µM in each case.

Turning to `CN1C(=O)[C@H]2CCCCN2c2nc(-n3ccnc3)ncc21` [Example 24, (R)-2-(1H-imidazol-1-yl)-5-methyl-7,8,9,10-tetrahydro-5H-pyrido[2,1-h]pteridin-6(6aH)-one], the IC50 on PLK1 and on PLK2 was over 50 µM each time.

For `CC(C)N1c2nc(-n3ccnc3-c3ccc(F)cc3)ncc2N(C)C(=O)C12CCC2` [Example 290, 2′-(2-(4-fluorophenyl)-1H-imidazol-1-yl)-8′-isopropyl-5′-methyl-5′H-Spiro[cyclobutane-1,7′-pteridin]-6′(8′H)-one], the IC50 at PLK3 (setting [1]) lay in the range of 10 to 50 µM.

As for `CC[C@@H]1C(=O)N(C)c2cnc(-c3cc4ccccc4[nH]3)nc2N1C1CCCC1` [Example 9, (R)-8-cyclopentyl-7-ethyl-2-(1H-indol-2-yl)-5-methyl-7,8-dihydropteridin-6(5H)-one], the IC50 at PLK1 was under 1 µM; on PLK2 it was 1 to 10 µM.

Regarding `CC[C@@]12COCCN1c1nc(-c3ccncc3-c3ccccc3)ncc1N(C)C2=O` [Example 394, (S)-6a-ethyl-5-methyl-2-(3-phenylpyridin-4-yl)-6a,7,9,10-tetrahydro-[1,4]oxazino[3,4-h]pteridin-6(5H)-one], the “relative PLK2 activity” value on PLK2 is “more active compound”.

Take `CN1C(=O)[C@H]2CCCCN2c2nc(-c3ccncc3)ncc21` [Example 25, (R)-5-methyl-2-(pyridin-4-yl)-7,8,9,10-tetrahydro-5H-pyrido[2,1-h]pteridin-6(6aH)-one]: the IC50 at PLK1 is over 50 µM; at PLK2, 10 to 50 µM.

As for `CC[C@@H]1C(=O)N(C)c2cnc(-c3cccc4cc[nH]c34)nc2N1C1CCCC1` [Example 10, (R)-8-cyclopentyl-7-ethyl-2-(1H-indol-7-yl)-5-methyl-7,8-dihydropteridin-6(5H)-one], the IC50 against PLK1 is 10 to 50 µM; on PLK2, 1 to 10 µM.

In the case of `CC[C@@H]1C(=O)N(C)c2cnc(-c3cccc4cccnc34)nc2N1C1CCCC1` [Example 11, (R)-8-cyclopentyl-7-ethyl-5-methyl-2-(quinolin-8-yl)-7,8-dihydropteridin-6(5H)-one], the IC50 is over 50 µM at PLK1 and 10 to 50 µM at PLK2.

As for `CC[C@@]12COCCN1c1nc(-n3ccnc3-c3ccccc3)ncc1NC2=O` [Example 418, (S)-6a-ethyl-2-(2-phenyl-1H-imidazol-1-yl)-6a,7,9,10-tetrahydro-[1,4]oxazino[3,4-h]pteridin-6(5H)-one], the “relative PLK2 activity” value at PLK2 was “more active compound”.

For `CC[C@@]12COCCN1c1nc(-c3snnc3-c3ccc(F)cc3F)ncc1N(C)C2=O` [Example 397, (S)-2-(4-(2,4-difluorophenyl)-1,2,3-thiadiazol-5-yl)-6a-ethyl-5-methyl-6a,7,9,10-tetrahydro-[1,4]oxazino[3,4-h]pteridin-6(5H)-one], on PLK2, the “relative PLK2 activity” value is on record as “more active compound”.

Take `CC[C@@H]1C(=O)N(C)c2cnc(-n3cc(C(=O)NC)cn3)nc2N1C1CCCC1` [Example 40, (R)-1-(8-cyclopentyl-7-ethyl-5-methyl-6-oxo-5,6,7,8-tetrahydropteridin-2-yl)-N-methyl-1H-pyrazole-4-carboxamide]: the IC50 at PLK2 lay within 1 to 10 µM.

For `CC[C@@]12COCCN1c1nc(-c3cn[nH]c3-c3ccc(F)cc3F)ncc1N(C)C2=O` [Example 411, (S)-2-(5-(2,4-difluorophenyl)-1H-pyrazol-4-yl)-6a-ethyl-5-methyl-6a,7,9,10-tetrahydro-[1,4]oxazino[3,4-h]pteridin-6(5H)-one], the “relative PLK2 activity” value on PLK2 was “more active compound”.

On to `CC[C@@H]1C(=O)N(C)c2cnc(-n3ccnc3-c3ccccc3)nc2N1c1cnn(C)c1` [Example 409, (R)-7-ethyl-5-methyl-8-(1-methyl-1H-pyrazol-4-yl)-2-(2-phenyl-1H-imidazol-1-yl)-7,8-dihydropteridin-6(5H)-one], for which the “relative PLK2 activity” value at PLK2 was “more active compound”.

For the molecule `CC[C@@]12COCCN1c1nc(-c3cn[nH]c3-c3nccs3)ncc1N(C)C2=O` [Example 344, (S)-6a-ethyl-5-methyl-2-(5-(thiazol-2-yl)-1H-pyrazol-4-yl)-6a,7,9,10-tetrahydro-[1,4]oxazino[3,4-h]pteridin-6(5H)-one], the “relative PLK2 activity” value at PLK2 is given as “more active compound”.

For `CC[C@@H]1C(=O)N(C)c2cnc(N3CCCC3)nc2N1C1CCCC1` [Example 1, (R)-8-cyclopentyl-7-ethyl-5-methyl-2-(pyrrolidin-1-yl)-7,8-dihydropteridin-6(5H)-one], the IC50 is 10 to 50 µM against PLK1 and 1 to 10 µM at PLK2.

As for `CCC1C(=O)N(C)c2cnc(-n3ccnc3-c3ccc(F)cc3)nc2N1c1cccc(C#N)c1` (centres unmarked) [Example 332], the figures for the 50% inhibitory concentration (IC50) on PLK3 (setting [2]) and at PLK2 were 1 to 10 µM and under 1 µM, respectively.

Take `CC[C@@]12CN(C)CCN1c1nc(-n3ccnc3-c3ccccc3)ncc1N(C)C2=O` [Example 374, (S)-6a-ethyl-5,8-dimethyl-2-(2-phenyl-1H-imidazol-1-yl)-7,8,9,10-tetrahydro-5H-pyrazino[2,1-h]pteridin-6(6aH)-one]: the “relative PLK2 activity” value on PLK2 is listed as “more active compound”.

With `CC[C@@H]1C(=O)N(C)c2cnc(-n3ccnc3-c3ccc(F)cc3)nc2N1c1ccn(C)n1` [Example 407, (R)-7-ethyl-2-(2-(4-fluorophenyl)-1H-imidazol-1-yl)-5-methyl-8-(1-methyl-1H-pyrazol-3-yl)-7,8-dihydropteridin-6(5H)-one], the “relative PLK2 activity” value at PLK2 is reported as “more active compound”.

Take `CC[C@@H]1C(=O)N(C)c2cnc(-c3ccnc(OC)c3)nc2N1C1CCCC1` [Example 15, (R)-8-cyclopentyl-7-ethyl-2-(2-methoxypyridin-4-yl)-5-methyl-7,8-dihydropteridin-6(5H)-one]: the IC50 on PLK1 and on PLK2 was under 1 µM throughout.

For `CC[C@@H]1C(=O)N(C)c2cnc(-c3ccccc3)nc2N1C1CCCC1` [Example 12, (R)-8-cyclopentyl-7-ethyl-5-methyl-2-phenyl-7,8-dihydropteridin-6(5H)-one], the IC50 against PLK1 and at PLK2 was 1 to 10 µM throughout.

As for `CC[C@@]12COCCN1c1nc(-n3ccnc3-c3ccc(F)cc3F)ncc1N(C)C2=O` [Example 376, (S)-2-(2-(2,4-difluorophenyl)-1H-imidazol-1-yl)-6a-ethyl-5-methyl-6a,7,9,10-tetrahydro-[1,4]oxazino[3,4-h]pteridin-6(5H)-one], at PLK2, the “relative PLK2 activity” value was “more active compound”.

In the case of `CC[C@@]12COCCN1c1nc(-n3ccnc3-c3ccc(F)cn3)ncc1N(C)C2=O` [Example 380, (S)-6a-ethyl-2-(2-(5-fluoropyridin-2-yl)-1H-imidazol-1-yl)-5-methyl-6a,7,9,10-tetrahydro-[1,4]oxazino[3,4-h]pteridin-6(5H)-one], the “relative PLK2 activity” value on PLK2 is on record as “more active compound”.
